Source: PubChem BioAssay (NCI)
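Each compound was tested at five concentrations against cells in 96-well plates for 48 hours. The concentration for full growth arrest is given as TGI.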

System: MCF7 breast
Test: NCI tumour cell line growth inhibition, 48 h

Structure (SMILES)	TGI [µM]
CC1=NN(c2cccc(S(=O)(=O)O)c2)C2(C1)C(Cl)C(=O)N2c1nc2ccccc2s1 (configuration not stated)	25
C/C(Cl)=N/OC(=O)Nc1ccc(F)c([N+](=O)[O-])c1	> 49
COC(=O)C1C2OC(C)(C)OC2CN1S(=O)(=O)c1ccc(C)cc1 (configuration not stated)	> 100
COc1ccc(CNc2ccn(C3OC(CO)C(O)C3O)c(=O)n2)cc1 (configuration not stated)	> 100
O=C1CSC(c2ccccc2)N1c1nc2cc3sc(N4C(=O)CSC4c4ccccc4)nc3cc2s1 (configuration not stated)	> 100
C[C@]12CCC(O)CC1=CC[C@@H]1[C@@H]2CC[C@]2(C)C(O)[C@H](n3ccnc3)C[C@@H]12 (some centres not stated)	> 100
O=C(CC(O)(C(F)(F)F)C(F)(F)F)C(c1ccccc1)C(O)(C(F)(F)F)C(F)(F)F (configuration not stated)	> 100
CCOC(=O)/C(C#N)=C/Nc1c(C)n(C)n(-c2ccccc2)c1=O	> 100

System: NCI-H522 lung
Test: NCI tumour cell line growth inhibition, 48 h

Structure (SMILES)	TGI [µM]
COc1cc(C(=O)NNC(=O)c2cc(Br)ccc2NC(=O)c2cccs2)cc(OC)c1OC	53.3
C[N+]12CCCCC1C(COc1cccc3cccnc13)CCC2 (configuration not stated)	> 100
Cc1ccc(S(=O)(=O)NC(=O)NCc2ccc(S(N)(=O)=O)cc2)cc1	> 100
NC(=O)NC1NC(=O)NC1=O (configuration not stated)	> 100
CCN(CCCl)c1cc(CN(C)C)cc(NC(=O)c2ccc(C(=O)Nc3cc(CN(C)C)cc(N(CC)CCCl)c3)cc2)c1	0.234
C=CCN1C(=O)/C(=C/c2ccc(Cl)cc2)N=C1SC/C=C/C	> 100
CC12Nc3c(Cl)cc(Cl)cc3N1C(=O)c1ccccc12 (configuration not stated)	> 100
Nc1cc(Cl)cc2cc(Cl)cnc12	> 100
COC(=O)/C(C)=N/NC(=S)SC	81.8
O=C(/C=C/c1cccc([N+](=O)[O-])c1)N1CCN(CCOC(c2ccccc2)c2ccccc2)CC1	> 100
CC(=O)OCC1OC(NC(=S)Nn2c(=O)[nH]c3ccccc3c2=O)C(OC(C)=O)C(OC(C)=O)C1OC(C)=O (configuration not stated)	> 100
Cc1ccc2c(c1)C(=O)C1(C2)Cc2c(C)cccc2C1=O (configuration not stated)	> 100
CC1=NN(c2cccc(S(=O)(=O)O)c2)C2(C1)C(Cl)C(=O)N2c1nc2ccccc2s1 (configuration not stated)	3.99
C/C(Cl)=N/OC(=O)Nc1ccc(F)c([N+](=O)[O-])c1	4.27
COC(=O)C1C2OC(C)(C)OC2CN1S(=O)(=O)c1ccc(C)cc1 (configuration not stated)	> 100
COc1ccc(CNc2ccn(C3OC(CO)C(O)C3O)c(=O)n2)cc1 (configuration not stated)	> 100
O=C1CSC(c2ccccc2)N1c1nc2cc3sc(N4C(=O)CSC4c4ccccc4)nc3cc2s1 (configuration not stated)	> 100
C[C@]12CCC(O)CC1=CC[C@@H]1[C@@H]2CC[C@]2(C)C(O)[C@H](n3ccnc3)C[C@@H]12 (some centres not stated)	> 100
O=C(CC(O)(C(F)(F)F)C(F)(F)F)C(c1ccccc1)C(O)(C(F)(F)F)C(F)(F)F (configuration not stated)	> 100
CCOC(=O)/C(C#N)=C/Nc1c(C)n(C)n(-c2ccccc2)c1=O	> 100

System: OVCAR-4 ovarian
Test: NCI tumour cell line growth inhibition, 48 h

Structure (SMILES)	TGI [µM]
COc1cc(C(=O)NNC(=O)c2cc(Br)ccc2NC(=O)c2cccs2)cc(OC)c1OC	51.4
C[N+]12CCCCC1C(COc1cccc3cccnc13)CCC2 (configuration not stated)	> 100
Cc1ccc(S(=O)(=O)NC(=O)NCc2ccc(S(N)(=O)=O)cc2)cc1	> 100
NC(=O)NC1NC(=O)NC1=O (configuration not stated)	> 100
CCN(CCCl)c1cc(CN(C)C)cc(NC(=O)c2ccc(C(=O)Nc3cc(CN(C)C)cc(N(CC)CCCl)c3)cc2)c1	9.46
C=CCN1C(=O)/C(=C/c2ccc(Cl)cc2)N=C1SC/C=C/C	> 100
CC12Nc3c(Cl)cc(Cl)cc3N1C(=O)c1ccccc12 (configuration not stated)	> 100
Nc1cc(Cl)cc2cc(Cl)cnc12	> 100
COC(=O)/C(C)=N/NC(=S)SC	> 100
O=C(/C=C/c1cccc([N+](=O)[O-])c1)N1CCN(CCOC(c2ccccc2)c2ccccc2)CC1	> 100
Cc1ccc2c(c1)C(=O)C1(C2)Cc2c(C)cccc2C1=O (configuration not stated)	> 100
CC1=NN(c2cccc(S(=O)(=O)O)c2)C2(C1)C(Cl)C(=O)N2c1nc2ccccc2s1 (configuration not stated)	14.9
C/C(Cl)=N/OC(=O)Nc1ccc(F)c([N+](=O)[O-])c1	40.7
COC(=O)C1C2OC(C)(C)OC2CN1S(=O)(=O)c1ccc(C)cc1 (configuration not stated)	> 100
COc1ccc(CNc2ccn(C3OC(CO)C(O)C3O)c(=O)n2)cc1 (configuration not stated)	> 100
O=C1CSC(c2ccccc2)N1c1nc2cc3sc(N4C(=O)CSC4c4ccccc4)nc3cc2s1 (configuration not stated)	> 100
C[C@]12CCC(O)CC1=CC[C@@H]1[C@@H]2CC[C@]2(C)C(O)[C@H](n3ccnc3)C[C@@H]12 (some centres not stated)	> 100
O=C(CC(O)(C(F)(F)F)C(F)(F)F)C(c1ccccc1)C(O)(C(F)(F)F)C(F)(F)F (configuration not stated)	> 100
CCOC(=O)/C(C#N)=C/Nc1c(C)n(C)n(-c2ccccc2)c1=O	> 100

System: OVCAR-5 ovarian
Test: NCI tumour cell line growth inhibition, 48 h

Structure (SMILES)	TGI [µM]
COc1cc(C(=O)NNC(=O)c2cc(Br)ccc2NC(=O)c2cccs2)cc(OC)c1OC	45.3
C[N+]12CCCCC1C(COc1cccc3cccnc13)CCC2 (configuration not stated)	> 100
Cc1ccc(S(=O)(=O)NC(=O)NCc2ccc(S(N)(=O)=O)cc2)cc1	> 100
NC(=O)NC1NC(=O)NC1=O (configuration not stated)	> 100
CCN(CCCl)c1cc(CN(C)C)cc(NC(=O)c2ccc(C(=O)Nc3cc(CN(C)C)cc(N(CC)CCCl)c3)cc2)c1	0.966
C=CCN1C(=O)/C(=C/c2ccc(Cl)cc2)N=C1SC/C=C/C	> 100
CC12Nc3c(Cl)cc(Cl)cc3N1C(=O)c1ccccc12 (configuration not stated)	> 100
Nc1cc(Cl)cc2cc(Cl)cnc12	> 100
COC(=O)/C(C)=N/NC(=S)SC	> 100
O=C(/C=C/c1cccc([N+](=O)[O-])c1)N1CCN(CCOC(c2ccccc2)c2ccccc2)CC1	> 100
CC(=O)OCC1OC(NC(=S)Nn2c(=O)[nH]c3ccccc3c2=O)C(OC(C)=O)C(OC(C)=O)C1OC(C)=O (configuration not stated)	> 100
Cc1ccc2c(c1)C(=O)C1(C2)Cc2c(C)cccc2C1=O (configuration not stated)	> 100
CC1=NN(c2cccc(S(=O)(=O)O)c2)C2(C1)C(Cl)C(=O)N2c1nc2ccccc2s1 (configuration not stated)	28.1
C/C(Cl)=N/OC(=O)Nc1ccc(F)c([N+](=O)[O-])c1	> 53.4
COC(=O)C1C2OC(C)(C)OC2CN1S(=O)(=O)c1ccc(C)cc1 (configuration not stated)	> 100
COc1ccc(CNc2ccn(C3OC(CO)C(O)C3O)c(=O)n2)cc1 (configuration not stated)	> 100
O=C1CSC(c2ccccc2)N1c1nc2cc3sc(N4C(=O)CSC4c4ccccc4)nc3cc2s1 (configuration not stated)	> 100
C[C@]12CCC(O)CC1=CC[C@@H]1[C@@H]2CC[C@]2(C)C(O)[C@H](n3ccnc3)C[C@@H]12 (some centres not stated)	> 100
O=C(CC(O)(C(F)(F)F)C(F)(F)F)C(c1ccccc1)C(O)(C(F)(F)F)C(F)(F)F (configuration not stated)	> 100
CCOC(=O)/C(C#N)=C/Nc1c(C)n(C)n(-c2ccccc2)c1=O	> 100

System: OVCAR-8 ovarian
Test: NCI tumour cell line growth inhibition, 48 h

Structure (SMILES)	TGI [µM]
COc1cc(C(=O)NNC(=O)c2cc(Br)ccc2NC(=O)c2cccs2)cc(OC)c1OC	59.9
C[N+]12CCCCC1C(COc1cccc3cccnc13)CCC2 (configuration not stated)	> 100
NC(=O)NC1NC(=O)NC1=O (configuration not stated)	> 100
CCN(CCCl)c1cc(CN(C)C)cc(NC(=O)c2ccc(C(=O)Nc3cc(CN(C)C)cc(N(CC)CCCl)c3)cc2)c1	1.63
C=CCN1C(=O)/C(=C/c2ccc(Cl)cc2)N=C1SC/C=C/C	> 100
CC12Nc3c(Cl)cc(Cl)cc3N1C(=O)c1ccccc12 (configuration not stated)	> 100
Nc1cc(Cl)cc2cc(Cl)cnc12	> 100
COC(=O)/C(C)=N/NC(=S)SC	> 100
O=C(/C=C/c1cccc([N+](=O)[O-])c1)N1CCN(CCOC(c2ccccc2)c2ccccc2)CC1	> 100
CC(=O)OCC1OC(NC(=S)Nn2c(=O)[nH]c3ccccc3c2=O)C(OC(C)=O)C(OC(C)=O)C1OC(C)=O (configuration not stated)	> 100
Cc1ccc2c(c1)C(=O)C1(C2)Cc2c(C)cccc2C1=O (configuration not stated)	> 100
CC1=NN(c2cccc(S(=O)(=O)O)c2)C2(C1)C(Cl)C(=O)N2c1nc2ccccc2s1 (configuration not stated)	19.1
C/C(Cl)=N/OC(=O)Nc1ccc(F)c([N+](=O)[O-])c1	31.7
COC(=O)C1C2OC(C)(C)OC2CN1S(=O)(=O)c1ccc(C)cc1 (configuration not stated)	> 100
COc1ccc(CNc2ccn(C3OC(CO)C(O)C3O)c(=O)n2)cc1 (configuration not stated)	> 100
O=C1CSC(c2ccccc2)N1c1nc2cc3sc(N4C(=O)CSC4c4ccccc4)nc3cc2s1 (configuration not stated)	> 100
C[C@]12CCC(O)CC1=CC[C@@H]1[C@@H]2CC[C@]2(C)C(O)[C@H](n3ccnc3)C[C@@H]12 (some centres not stated)	> 100
O=C(CC(O)(C(F)(F)F)C(F)(F)F)C(c1ccccc1)C(O)(C(F)(F)F)C(F)(F)F (configuration not stated)	> 100
CCOC(=O)/C(C#N)=C/Nc1c(C)n(C)n(-c2ccccc2)c1=O	> 100

System: RXF 393 renal
Test: NCI tumour cell line growth inhibition, 48 h

Structure (SMILES)	TGI [µM]
COc1cc(C(=O)NNC(=O)c2cc(Br)ccc2NC(=O)c2cccs2)cc(OC)c1OC	29.1
C[N+]12CCCCC1C(COc1cccc3cccnc13)CCC2 (configuration not stated)	> 100
Cc1ccc(S(=O)(=O)NC(=O)NCc2ccc(S(N)(=O)=O)cc2)cc1	> 100
NC(=O)NC1NC(=O)NC1=O (configuration not stated)	> 100
CCN(CCCl)c1cc(CN(C)C)cc(NC(=O)c2ccc(C(=O)Nc3cc(CN(C)C)cc(N(CC)CCCl)c3)cc2)c1	0.109
C=CCN1C(=O)/C(=C/c2ccc(Cl)cc2)N=C1SC/C=C/C	55.3
